Assay results reported in ChEMBL document CHEMBL5518215, “Unlocking Antibacterial Potential: Key-Site-Based Regulation of Antibacterial Spectrum of Peptides” (J Med Chem, 2024).
Residues, ends and D or L forms follow the SMILES beside them. *: point of attachment. FITC = O=C1OC2(c3ccc(O)cc3Oc3cc(O)ccc32)c2ccc(NC(=S)*)cc21

Tests used:
[1] = tested on: Listeria monocytogenes; test: Antimicrobial activity against Listeria monocytogenes 1.10753 assessed as absence bacterial growth measured after 18 to 24 hrs incubation by NCCLS method; type: functional; conditions: time 18-24 hrs
[2] = Cytotoxicity against mouse RAW264.7 cells assessed as cell survival rate measured after 8 hrs by MTT assay; type: toxicity, cell-based
[3] = tested on: Escherichia coli; test: Antimicrobial activity against Escherichia coli 25922 assessed as absence bacterial growth measured after 18 to 24 hrs incubation in presence of 12.5% serum by NCCLS method; type: functional; conditions: time 18-24 hrs
[4] = tested on: Escherichia coli; test: Antimicrobial activity against Escherichia coli 25922 assessed as absence bacterial growth measured after 18 to 24 hrs incubation in presence of FeCl3 by NCCLS method; type: functional; conditions: time 18-24 hrs
[5] = tested on: Escherichia coli; test: Antimicrobial activity against Escherichia coli 25922 assessed as absence bacterial growth measured after 18 to 24 hrs incubation in presence of MgCl2 by NCCLS method; type: functional; conditions: time 18-24 hrs
[6] = tested on: Acinetobacter baumannii; test: Antimicrobial activity against Acinetobacter baumannii 1.6769 assessed as absence bacterial growth measured after 18 to 24 hrs incubation by NCCLS method; type: functional; conditions: time 18-24 hrs
[7] = tested on: Escherichia coli; test: Antimicrobial activity against Escherichia coli K88 assessed as absence bacterial growth measured after 18 to 24 hrs incubation by NCCLS method; type: functional; conditions: time 18-24 hrs
[8] = tested on: Staphylococcus aureus; test: Antimicrobial activity against Methicillin-resistant Staphylococcus aureus 43300 assessed as bacterial killing measured after 16 hrs incubation; type: functional
[9] = Cytotoxicity against human HEK-293T cells assessed as cell survival rate at 64 uM measured after 8 hrs by MTT assay relative to control; type: toxicity, cell-based; conditions: read-out: Activity
[10] = tested on: Pseudomonas aeruginosa; test: Antimicrobial activity against Pseudomonas aeruginosa 27853 assessed as absence bacterial growth measured after 18 to 24 hrs incubation by NCCLS method; type: functional; conditions: time 18-24 hrs
[11] = tested on: Salmonella typhimurium; test: Antimicrobial activity against Salmonella typhimurium C7731 assessed as absence bacterial growth measured after 18 to 24 hrs incubation by NCCLS method; type: functional, Salmonella enterica subsp. enterica serovar Typhimurium; conditions: Salmonella enterica, time 18-24 hrs
[12] = tested on: Staphylococcus aureus; test: Antimicrobial activity against Staphylococcus aureus 29213 assessed as absence bacterial growth measured after 18 to 24 hrs incubation by NCCLS method; type: functional; conditions: time 18-24 hrs
[13] = tested on: Escherichia coli; test: Antimicrobial activity against Escherichia coli K88 assessed as bacterial killing measured after 16 hrs incubation; type: functional
[14] = tested on: Enterococcus faecalis; test: Antimicrobial activity against Enterococcus faecalis 29212 assessed as bacterial killing measured after 16 hrs incubation; type: functional
[15] = tested on: Escherichia coli; test: Antimicrobial activity against Escherichia coli 25922 assessed as absence bacterial growth measured after 18 to 24 hrs incubation in presence of 50% serum by NCCLS method; type: functional; conditions: time 18-24 hrs
[16] = tested on: Salmonella typhimurium; test: Antimicrobial activity against Salmonella typhimurium 14028 assessed as absence bacterial growth measured after 18 to 24 hrs incubation by NCCLS method; type: functional, Salmonella enterica subsp. enterica serovar Typhimurium; conditions: Salmonella enterica, time 18-24 hrs
[17] = tested on: Bacillus cereus; test: Antimicrobial activity against Bacillus cereus 1.932 assessed as absence bacterial growth measured after 18 to 24 hrs incubation by NCCLS method; type: functional; conditions: time 18-24 hrs
[18] = tested on: Escherichia coli; test: Antimicrobial activity against Escherichia coli 25922 assessed as absence bacterial growth measured after 18 to 24 hrs incubation by NCCLS method; type: functional; conditions: time 18-24 hrs
[19] = tested on: Escherichia coli; test: Antimicrobial activity against Escherichia coli 25922 assessed as absence bacterial growth measured after 18 to 24 hrs incubation in presence of 25% serum by NCCLS method; type: functional; conditions: time 18-24 hrs
[20] = tested on: Staphylococcus aureus; test: Antimicrobial activity against Staphylococcus aureus 29213 assessed as absence bacterial growth measured after 18 to 24 hrs incubation by NCCLS m; type: functional; conditions: time 18-24 hrs
[21] = tested on: Acinetobacter baumannii; test: Antimicrobial activity against Acinetobacter baumannii 1.6769 assessed as bacterial killing measured after 16 hrs incubation; type: functional
[22] = tested on: Salmonella typhimurium; test: Antimicrobial activity against Salmonella typhimurium C7731 assessed as bacterial killing measured after 16 hrs incubation; type: functional, Salmonella enterica subsp. enterica serovar Typhimurium; conditions: Salmonella enterica
[23] = tested on: Staphylococcus epidermidis; test: Antimicrobial activity against Staphylococcus epidermidis 12228 assessed as bacterial killing measured after 16 hrs incubation; type: functional
[24] = tested on: Escherichia coli; test: Antimicrobial activity against Escherichia coli 25922 assessed as absence bacterial growth measured after 18 to 24 hrs incubation in presence of NH4Cl by NCCLS method; type: functional; conditions: time 18-24 hrs
[25] = Antimicrobial activity against Salmonella pullorum C7913 assessed as bacterial killing measured after 16 hrs incubation; type: functional, Salmonella enterica subsp. enterica serovar Pullorum; conditions: Salmonella enterica
[26] = Cytotoxicity against mouse RAW264.7 cells assessed as cell survival rate at 32 to 64 uM measured after 8 hrs by MTT assay relative to control; type: toxicity, cell-based; conditions: dose 32-64 µM, read-out: Activity
[27] = tested on: Erythrocyte; test: Hemolytic activity in human RBC at effective concentration measured after 1 hr by microplate reader analysis; type: toxicity, cell-based
[28] = tested on: Pseudomonas aeruginosa; test: Antimicrobial activity against Pseudomonas aeruginosa 27853 assessed as bacterial killing measured after 16 hrs incubation; type: functional
[29] = tested on: Escherichia coli; test: Antimicrobial activity against Escherichia coli 25922 assessed as absence bacterial growth measured after 18 to 24 hrs incubation in presence of NaCl by NCCLS method; type: functional; conditions: time 18-24 hrs
[30] = tested on: Bacillus cereus; test: Antimicrobial activity against Bacillus cereus 1.932 assessed as bacterial killing measured after 16 hrs incubation; type: functional
[31] = tested on: Staphylococcus aureus; test: Antimicrobial activity against Staphylococcus aureus 29213 assessed as bacterial killing measured after 16 hrs incubation; type: functional
[32] = Cytotoxicity against porcine IPEC-J2 cells assessed as cell survival rate at 64 uM measured after 8 hrs by MTT assay relative to control; type: toxicity, cell-based, Sus scrofa; conditions: pig, read-out: Activity
[33] = Hemolytic activity in human RBC at effective concentration at 128 uM measured after 1 hr by microplate reader relative to control; type: toxicity, cell-based, Erythrocyte; conditions: human red blood cells (erythrocytes), read-out: Activity
[34] = tested on: Escherichia coli; test: Antimicrobial activity against Escherichia coli 25922 assessed as absence bacterial growth measured after 18 to 24 hrs incubation in presence of KCl by NCCLS method; type: functional; conditions: time 18-24 hrs
[35] = tested on: Listeria monocytogenes; test: Antimicrobial activity against Listeria monocytogenes 1.10753 assessed as bacterial killing measured after 16 hrs incubation; type: functional
[36] = tested on: Salmonella typhimurium; test: Antimicrobial activity against Salmonella typhimurium 14028 assessed as bacterial killing measured after 16 hrs incubation; type: functional, Salmonella enterica subsp. enterica serovar Typhimurium; conditions: Salmonella enterica
[37] = tested on: Escherichia coli; test: Antimicrobial activity against Escherichia coli 25922 assessed as bacterial killing measured after 16 hrs incubation; type: functional
[38] = Antimicrobial activity against Salmonella pullorum C7913 assessed as absence bacterial growth measured after 18 to 24 hrs incubation by NCCLS method; type: functional, Salmonella enterica subsp. enterica serovar Pullorum; conditions: Salmonella enterica, time 18-24 hrs
[39] = tested on: Staphylococcus epidermidis; test: Antimicrobial activity against Staphylococcus epidermidis 12228 assessed as absence bacterial growth measured after 18 to 24 hrs incubation by NCCLS method; type: functional; conditions: time 18-24 hrs
[40] = Cytotoxicity against human HEK-293T cells assessed as cell survival rate measured after 8 hrs by MTT assay; type: toxicity, cell-based
[41] = Cytotoxicity against porcine IPEC-J2 cells assessed as cell survival rate measured after 8 hrs by MTT assay; type: toxicity, cell-based, Sus scrofa; conditions: pig
[42] = tested on: Staphylococcus aureus; test: Antimicrobial activity against Staphylococcus aureus 25923 assessed as bacterial killing measured after 16 hrs incubation; type: functional
[43] = tested on: Enterococcus faecalis; test: Antimicrobial activity against Enterococcus faecalis 29212 assessed as absence bacterial growth measured after 18 to 24 hrs incubation by NCCLS method; type: functional; conditions: time 18-24 hrs
[44] = tested on: Escherichia coli; test: Antimicrobial activity against Escherichia coli 25922 assessed as absence bacterial growth measured after 18 to 24 hrs incubation in presence of ZnCl2 by NCCLS method; type: functional; conditions: time 18-24 hrs
[45] = tested on: Staphylococcus aureus; test: Antimicrobial activity against Methicillin-resistant Staphylococcus aureus 43300 assessed as absence bacterial growth measured after 18 to 24 hrs incubation by NCCLS method; type: functional; conditions: time 18-24 hrs
[46] = Drug distribution in Staphylococcus aureus 29213 assessed as red fluorescence signal at 1 time MIC concentration incubated for 30 mins in absence of light by Propidium iodide staining based assay; type: ADME; conditions: 0.5 h
[47] = Drug distribution in Escherichia coli 25922 assessed as green fluorescence signal covered all the bacterial cell at 1 time MIC concentration incubated for 30 mins in absence of light by 3D-SIM super resolution microscopy; type: ADME; conditions: 0.5 h
[48] = Drug distribution in Escherichia coli 25922 assessed as red fluorescence signal at 1 time MIC concentration incubated for 30 mins in absence of light by Propidium iodide staining based assay; type: ADME; conditions: 0.5 h
[49] = Drug distribution in Staphylococcus aureus 29213 assessed as green fluorescence signal covered all the bacterial cell at 1 time MIC concentration incubated for 30 mins in absence of light by 3D-SIM super resolution microscopy; type: ADME; conditions: 0.5 h

H-GKLWLKGAKLWLKGGKLWLKG-NH2
> 32 µM: MIC [1] | MIC [15] | MIC [19] | MBC [35]
> 64 µM: IC50 at 8 h [2] | IC50 at 8 h [40] | IC50 at 8 h [41]
8 µM: MIC [5] | MBC [8] | MIC [12] | MIC [20] | MBC [22] | MBC [23] | MBC [28] | MBC [31] | MBC [36] | MIC [39] | MBC [42]
4 µM: MIC [6] | MIC [10] | MIC [11] | MBC [21] | MIC [45]
32 µM: MIC [3]
1 µM: MIC [7] | MBC [13] | MIC [44]
16 µM: MBC [14] | MIC [29] | MIC [43]
> 128 µM: HC10 [27]
< 50%: viability at 8 h, 64 µM [9] | viability at 8 h, 64 µM [32]
< 10%: hemolysis at 1 h, 128 µM [33]
2 µM: MIC [4] | MIC [16] | MIC [17] | MIC [18] | MIC [24] | MBC [25] | MBC [30] | MIC [34] | MBC [37] | MIC [38]
60%: viability at 8 h, up to 64 µM [26]

CC(C)C[C@H](NC(=O)[C@H](CCCCN)NC(=O)CNC(=O)CNC(=O)[C@H](CCCCN)NC(=O)[C@H](CC(C)C)NC(=O)[C@H](Cc1c[nH]c2ccccc12)NC(=O)[C@H](CC(C)C)NC(=O)[C@H](CCCCN)NC(=O)CNC(=O)[C@H](C)NC(=O)[C@H](CCCCN)NC(=O)[C@H](CC(C)C)NC(=O)[C@H](Cc1c[nH]c2ccccc12)NC(=O)[C@H](CC(C)C)NC(=O)[C@H](CCCCN)NC(=O)CNC(=S)Nc1ccc2c(c1)C(=O)OC21c2ccc(O)cc2Oc2cc(O)ccc21)C(=O)N[C@@H](Cc1c[nH]c2ccccc12)C(=O)N[C@@H](CC(C)C)C(=O)N[C@@H](CCCCN)C(=O)NCC(N)=O ({FITC}-GKLWLKAGKLWLKGGKLWLKG-NH2)
Active: Drug uptake [46] | Drug uptake [47] | Drug uptake [48] | Drug uptake [49]
